Measurements from the supplement of paper PMC10307832.

Assays:
Experiment in all cases: relative viability (nuclei count vs DMSO), 5 days (fraction); higher = more cells survive
[1] = compound: CN(C)C[C@@H]1CCn2cc(c3ccccc32)C2=C(C(=O)NC2=O)c2cn(c3ccccc23)CCO1 [Ruboxistaurin] + CC1(C)CCC(c2ccc(Cl)cc2)=C(CN2CCN(c3ccc(C(=O)NS(=O)(=O)c4ccc(N[C@H](CCN5CCOCC5)CSc5ccccc5)c(S(=O)(=O)C(F)(F)F)c4)cc3)CC2)C1 [Navitoclax] (partner 0.5 µM)
Outline: (§1)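 Relative viability was taken as the ratio of nuclei in treated wells to nuclei in vehicle wells. Lung cancer cell lines in 1536-well plates received compounds by pin tool one day after seeding, either one drug alone or a fixed anchor-drug dose plus five library-drug doses (not always all listed) in √10 steps. Nuclei were counted on 4× images after 5 days of treatment, and values are medians of duplicate plates.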

[2] = compound: CN(C)C[C@@H]1CCn2cc(c3ccccc32)C2=C(C(=O)NC2=O)c2cn(c3ccccc23)CCO1 [Ruboxistaurin] + COc1cc2c(Oc3ccc(NC(=O)C4(C(=O)Nc5ccc(F)cc5)CC4)cc3F)ccnc2cc1OCCCN1CCOCC1 [Foretinib] (partner 0.25 µM)
Outline: as §1

[3] = compound: CN(C)C[C@@H]1CCn2cc(c3ccccc32)C2=C(C(=O)NC2=O)c2cn(c3ccccc23)CCO1 [Ruboxistaurin] + Cc1cc(Nc2cc(N3CCN(C)CC3)nc(Sc3ccc(NC(=O)C4CC4)cc3)n2)n[nH]1 [Tozasertib] (partner 0.1 µM)
Outline: as §1

[4] = compound: CN(C)C[C@@H]1CCn2cc(c3ccccc32)C2=C(C(=O)NC2=O)c2cn(c3ccccc23)CCO1 [Ruboxistaurin] + Cc1nc(Nc2ncc(C(=O)Nc3c(C)cccc3Cl)s2)cc(N2CCN(CCO)CC2)n1 [Dasatinib] (partner 0.075 µM)
Outline: as §1

[5] = compound: CN(C)C[C@@H]1CCn2cc(c3ccccc32)C2=C(C(=O)NC2=O)c2cn(c3ccccc23)CCO1 [Ruboxistaurin] + Nc1ncn([C@H]2C[C@H](O)[C@@H](CO)O2)c(=O)n1 [Decitabine] (partner 2 µM)
Outline: as §1

Row | Cell Line | relative viability ([1]; first compound 0.08 µM) | relative viability ([1]; first compound 0.8 µM) | relative viability ([1]; first compound 2.53 µM) | relative viability ([1]; first compound 8 µM) | relative viability ([2]; first compound 0.08 µM) | relative viability ([2]; first compound 0.8 µM) | relative viability ([2]; first compound 2.53 µM) | relative viability ([2]; first compound 8 µM) | relative viability ([3]; first compound 0.08 µM) | relative viability ([3]; first compound 0.8 µM) | relative viability ([3]; first compound 2.53 µM) | relative viability ([3]; first compound 8 µM) | relative viability ([4]; first compound 0.08 µM) | relative viability ([4]; first compound 0.8 µM) | relative viability ([4]; first compound 2.53 µM) | relative viability ([4]; first compound 8 µM) | relative viability ([5]; first compound 0.08 µM) | relative viability ([5]; first compound 0.8 µM) | relative viability ([5]; first compound 2.53 µM) | relative viability ([5]; first compound 8 µM)
1 | LC-2-ad | 0.474 | 0.395 | 0.557 | 0.345 | 1.03 | 0.905 | 1.02 | 0.747 | 0.55 | 0.45 | 0.476 | 0.475 | 0.672 | 0.651 | 0.575 | 0.558 | 0.71 | 0.887 | 0.753 | 0.847
2 | LCLC-97TM1 | 0.672 | – | 0.332 | 0.411 | 0.863 | 0.891 | 0.923 | 0.825 | 0.194 | 0.168 | 0.242 | 0.159 | 0.891 | 0.896 | 0.968 | 0.821 | 0.179 | 0.191 | 0.278 | 0.231
3 | LK-2 | 0.893 | 0.792 | 0.875 | 0.674 | 1.32 | 0.962 | 0.927 | 0.892 | 0.174 | 0.152 | 0.179 | 0.162 | 0.283 | 0.237 | 0.264 | 0.242 | 0.356 | 0.315 | 0.402 | 0.238
4 | LOU-NH91 | 0.846 | 0.58 | 0.738 | 0.692 | 1.02 | 0.879 | 0.898 | 0.944 | 0.744 | 0.509 | 0.674 | 0.76 | 0.612 | 0.503 | 0.56 | 0.528 | 0.909 | 0.772 | 0.855 | 0.775
5 | LU99A | 0.883 | 0.71 | 0.798 | 0.716 | 0.802 | 0.774 | 0.778 | 0.751 | 0.256 | 0.205 | 0.221 | 0.229 | 0.412 | 0.436 | 0.589 | 0.507 | 0.861 | 0.762 | 1.01 | 0.773
6 | LXF-289 | 0.967 | 0.928 | 0.931 | 1.04 | 1.01 | 0.895 | 0.966 | 1.04 | 0.216 | 0.157 | 0.195 | 0.209 | 0.243 | 0.206 | 0.273 | 0.22 | 0.377 | 0.338 | 0.38 | 0.418
7 | NCI-H23 | 0.897 | 0.59 | 0.91 | 0.68 | 1 | 0.897 | 1.1 | 0.936 | 0.446 | 0.304 | 0.357 | 0.368 | 0.849 | 0.732 | 0.769 | 0.794 | 0.279 | 0.259 | 0.364 | 0.283
8 | NCI-H322M | 1.2 | 1.09 | 1.24 | 1.19 | 0.947 | 0.922 | 0.981 | 0.627 | 0.49 | 0.426 | 0.431 | 0.346 | 0.265 | 0.267 | 0.257 | 0.228 | 0.746 | 0.656 | 0.6 | 0.619
9 | NCI-H441 | 0.682 | 0.464 | 0.928 | 0.66 | 0.87 | 0.884 | 1.18 | 0.938 | 0.663 | 0.594 | 0.638 | 0.554 | 0.538 | 0.525 | 0.494 | 0.577 | 0.278 | 0.309 | 0.277 | 0.269
10 | NCI-H460 | 1.2 | 1.03 | 1.16 | 0.935 | 1.03 | 0.904 | 1.08 | 0.996 | 0.411 | 0.257 | 0.405 | 0.29 | 0.552 | 0.35 | 0.602 | 0.327 | 0.49 | 0.448 | 0.533 | 0.595
11 | NCI-H520 | 1.24 | 0.984 | 1.19 | 0.955 | 0.628 | 0.693 | 1.05 | 0.786 | 0.477 | 0.456 | 0.398 | 0.456 | 0.195 | 0.157 | 0.176 | 0.129 | 0.535 | 0.477 | 0.544 | 0.612
12 | NCI-H596 | 0.962 | 0.845 | 0.983 | 0.69 | 0.817 | 0.671 | 0.766 | 0.679 | 0.932 | 0.8 | 0.729 | 0.889 | 0.65 | 0.488 | 0.63 | 0.547 | 0.978 | 0.892 | 0.987 | 0.973
13 | NCI-H647 | 1.23 | 1 | 1.17 | 1.2 | 1.27 | 0.832 | 1.19 | 1.32 | 0.199 | 0.272 | 0.369 | 0.172 | 0.185 | 0.127 | 0.149 | 0.154 | 0.442 | 0.33 | 0.373 | 0.547
14 | NCI-H727 | 0.46 | 0.394 | 0.458 | 0.338 | 1.15 | 0.718 | 0.84 | 0.645 | 0.69 | 0.463 | 0.579 | 0.536 | 0.474 | – | 0.296 | 0.324 | 0.862 | 0.839 | 0.976 | 0.639
15 | NCI-H838 | 1.38 | 1.05 | 1.3 | 0.979 | 1.13 | 0.923 | 1.19 | 0.998 | 0.28 | 0.246 | 0.287 | 0.292 | 0.327 | 0.209 | 0.286 | 0.326 | 0.476 | 0.445 | 0.526 | 0.583
16 | NCI-H1355 | 1.09 | 0.853 | 0.897 | 0.813 | 1.02 | 0.862 | 1.02 | 0.82 | 0.529 | 0.485 | 0.484 | 0.38 | 0.774 | 0.614 | 0.638 | 0.464 | 0.37 | 0.356 | 0.347 | 0.411
17 | NCI-H1395 | 1.12 | 1.03 | 1.2 | 1.06 | 0.993 | 0.904 | 1.02 | 0.911 | 0.774 | 0.709 | 0.79 | 0.7 | 0.444 | 0.427 | 0.386 | 0.372 | 0.666 | 0.667 | 0.781 | 0.686
18 | NCI-H1437 | 1.11 | 1.05 | 1.15 | 1.11 | 1.29 | 1.21 | 1.37 | 1.38 | 0.434 | 0.365 | 0.378 | 0.417 | 0.438 | 0.367 | 0.326 | 0.392 | 0.571 | 0.621 | 0.622 | 0.702
19 | NCI-H1650 | 1.09 | 1.2 | 1.34 | 1.2 | 1.66 | 1.01 | 1.31 | 1.09 | 0.435 | 0.301 | 0.433 | 0.3 | 0.418 | 0.273 | 0.331 | 0.254 | 0.387 | 0.524 | 0.501 | 0.468
20 | NCI-H1651 | 1.08 | 0.827 | 1.05 | 1.11 | 1.04 | 0.772 | 0.794 | 0.841 | 0.922 | 0.639 | 0.8 | 0.521 | 0.436 | 0.339 | 0.356 | 0.435 | 0.698 | 0.542 | 0.681 | 0.632
21 | NCI-H1666 | 1.12 | 0.679 | 1.1 | 0.931 | 0.986 | 0.919 | 0.894 | 0.871 | 0.653 | 0.571 | 0.582 | 0.503 | 0.82 | 0.844 | 0.764 | 0.92 | 0.728 | 0.693 | 0.693 | 0.788
22 | NCI-H1734 | 0.964 | 0.671 | 0.857 | 0.745 | 0.852 | 0.783 | 0.922 | 0.683 | 0.282 | 0.224 | 0.249 | 0.243 | 0.559 | 0.39 | 0.437 | 0.347 | 0.535 | 0.466 | 0.501 | 0.521
23 | NCI-H1755 | 1.05 | 0.934 | 0.963 | 0.962 | 0.907 | 0.903 | 0.908 | 0.888 | 0.608 | 0.55 | 0.555 | 0.525 | 0.455 | 0.387 | 0.402 | 0.346 | 0.731 | 0.678 | 0.691 | 0.778
24 | NCI-H1793 | 0.503 | 0.382 | 0.468 | 0.604 | 0.637 | 0.576 | 0.652 | 0.687 | 0.346 | 0.242 | 0.408 | 0.301 | 0.371 | 0.377 | 0.442 | 0.506 | 0.461 | – | 0.614 | 0.549
25 | NCI-H1915 | 0.811 | 0.752 | 0.765 | 0.867 | 1.05 | 1.03 | 1.02 | 0.899 | 0.456 | 0.397 | 0.396 | 0.375 | 0.308 | 0.286 | 0.267 | 0.224 | 0.252 | 0.262 | 0.277 | 0.268
26 | NCI-H1944 | 1.08 | 1 | 1.04 | 1.09 | 0.933 | 0.844 | 0.856 | 0.719 | 0.249 | 0.206 | 0.239 | 0.237 | 0.209 | 0.204 | 0.205 | 0.189 | 0.439 | 0.403 | 0.405 | 0.46
27 | NCI-H1975 | 1.2 | 1.04 | 1.25 | 0.996 | 0.979 | 1.03 | 1.05 | 0.856 | 0.851 | 0.54 | 0.384 | 0.189 | 0.381 | 0.278 | 0.291 | 0.257 | 0.43 | 0.346 | 0.393 | 0.42
